The test system of one series is C57BL/6J mice. In words: Biotelemetry and head-twitch response (HTR) experiments. It is filed as in vivo, mice (C57BL/6J males). As to conditions: male C57BL/6 mice, SC, several doses (0.03 to 30 mg/kg). An excerpt: Mice (C57BL/6J males) were purchased from the Jackson Laboratory (Bar Harbor, ME, USA) at 5-6 weeks of age and allowed at least 1-2 weeks to acclimate to the NIDA, Intramural Research Program (IRP), animal research facility in Baltimore, MD, USA. The animal facility is fully accredited by the Association for the Assessment and Accreditation of Laboratory Animal Care, and all procedures were approved by the NIDA IRP Animal Care and Use Committee. Mice were initially group housed 3-5 per cage during acclimation and housed in a 12 h light-dark cycle throughout the study, with lights on at 0700 h. Food and water were available ad libitum except during testing. Cohorts of 20-24 mice were used for each test drug. The mice were subjected to experimental testing once every 1-2 weeks for 2-3 months to complete dose-effect curves and antagonist experiments. A minimum of 7 days between treatments was utilized to avoid any tolerance to effects of repeated drug administration. All drug doses represent the weight of the salt dissolved in 0.9% saline vehicle. Mice were tested first in dose-response studies to assess the effects of each compound at doses from 0.03 to 30 mg/kg s.c. and were subsequently tested in antagonist reversal studies utilizing pretreatment with M100907 and WAY100635. All experiments were conducted from 0900 to 1700 local time during the light phase, as sensitivity of rodents to other tryptamine psychedelics is diurnal, with maximal HTR observed in the middle of the light phase. […]
Subcutaneous Temperature Transponder Implants. […] Temperature was determined noninvasively using a handheld receiver that is sensitive to signals emitted from the implanted transponders.
Prior to each experiment, mouse body weight and temperature were recorded. […] In dose-response studies, after a brief 5 min acclimation, mouse body temperature was recorded for baseline measurement, mice received s.c. injection of test substance or vehicle, and animals were returned to the testing arena for 30 min. During the session, locomotor activity was monitored via photobeam tracking of movements in the horizontal plane to yield distance traveled in centimeter. HTR was monitored by the analysis of GoPro Hero Black 7 video recordings (120 frames per see and 960p resolution) using a commercially available software package from Clever Sys Inc. (Reston, VA, USA).82 Post-treatment body temperature values were also recorded, and temperature data are represented as change from pretreatment baseline.
In antagonist reversal experiments, mice received a s.c. injection of either receptor antagonists or vehicle and were returned to the testing chamber for 30 min. During this period, locomotor activity was monitored to examine the potential effects of antagonist treatment on general behavior or movement. […]

The subject of the next series is Male ICR mice. In words: Acute restraint stress - tail suspension test (TST). It is filed as in vivo. Particulars: ICR mice after 5 h acute restraint stress, IP; P-3 3, 10 mg/kg; P-8 3, 10, 30 mg/kg; vs vehicle. As to the method: Male ICR mice (23±3 g) were purchased from BioLASCO (Taipei, Taiwan) at 4-5 weeks of age and allowed 5-7 days to acclimate to the animal research facility at Pharmacology Discovery Services (Taipei, Taiwan). Mice were housed in groups of 10 in a large cage (47×25×15 cm) on a 12-hour light cycle (lights on: 0700) and provided ad libitum food and water except during acute restraint stress and tail-suspension testing. Temperature was maintained at 20-24° C., and all rooms (colony and testing rooms) had similar lighting intensity. All aspects of this work including housing, experimentation, and animal disposal were performed in accordance with the “Guide for the Care and Use of Laboratory Animals: Eighth Edition” (The National Academies Press, Washington, DC, 2011) in a facility accredited by the Association for Assessment and Accreditation of Laboratory Animal Care. […]
Tail Suspension Test (TST) Procedure: Mice were individually suspended on the edge of a shelf, 58 cm above a tabletop, using adhesive tape placed approximately 1 cm from the tip of the tail, for a total duration of 7 minutes. Using a stopwatch, the experimenters blinded to treatment groups recorded the duration of immobility (defined as hanging passively and motionless) during the 5 minutes spanning from 2-7 minutes. The data from 0-2 minutes was not recorded. […]

A further series has as its target T1, 5-HT2C receptor (Homo sapiens, UniProt P28335).
T1 construct: host or cells: HEK293
T1 sequence (P28335 33-458): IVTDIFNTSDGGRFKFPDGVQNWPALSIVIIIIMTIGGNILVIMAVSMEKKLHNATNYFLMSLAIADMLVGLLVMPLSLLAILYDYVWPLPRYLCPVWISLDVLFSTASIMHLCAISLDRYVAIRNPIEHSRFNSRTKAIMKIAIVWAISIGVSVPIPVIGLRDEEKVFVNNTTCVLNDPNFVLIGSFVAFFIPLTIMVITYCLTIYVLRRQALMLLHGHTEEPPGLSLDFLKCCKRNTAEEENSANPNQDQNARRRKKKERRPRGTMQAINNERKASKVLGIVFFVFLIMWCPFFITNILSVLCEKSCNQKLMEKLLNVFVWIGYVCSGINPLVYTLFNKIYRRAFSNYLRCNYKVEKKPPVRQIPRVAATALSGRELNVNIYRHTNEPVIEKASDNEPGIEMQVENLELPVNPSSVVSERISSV
Description: FLIPR Ca2+ flux functional assay, agonist activity at 5-HT2C. It is filed as cell-based. Particulars: stably transfected HEK293 cells. As to the method: (§1) Functional assays 5-HT2A, 5-HT2B and 5-HT2C Receptors
(§2) Activity at 5-HT2A, 5-HT2B and 5-HT2C receptors was determined using a FLIPR Ca2+ flux assay at WuXi AppTec Co. Ltd. (Hong Kong) Discovery Biology Unit according to their standard protocols. Briefly, stably transfected cells expressing the receptor of interest (HEK293 for 5-HT2A and 5-HT2C; CHO-K1 for 5-HT2B) were grown and plated in a 384 well plate and incubated at 37° C. and 5% CO2 overnight. A 250 mM stock solution of probenecid in FLIPR calcium assay buffer (10 mL) was freshly prepared and combined with a fluorescent dye (Fluo-4 Direct) to give a final assay concentration of 2.5 mM. Reference compounds were 4-fold serially diluted and the screening compounds were 3-fold serially diluted in 100% DMSO for 10 points using Agilent Bravo, and 750 nL was added to a 384 well compound plate using Echo along with 30 μL assay buffer. The fluorescent dye was then added to the assay plate along with assay buffer to a final volume of 40 μL. The cell plate was incubated for 50 min at 37° C. and 5% CO2 and placed into the FLIPR Tetra along with the compound plate. 10 μL of references and compounds were then transferred from the compound plate into the cell plate and the fluorescent signal was read.
Background: A change in cytosolic calcium serves as a functional read-out for many receptors and channels.

The target of a further series is T2, 5-HT2B receptor (Homo sapiens, UniProt P41595).
T2 construct: host or cells: CHO-K1
Description: 5-HT2B activation in a similar assay at a single 10 μM concentration. It is filed as cell-based. As to the method: Activation data are provided in a similar assay tested at a single 10 μM concentration.

In another series the target is T3, 5-HT2A receptor (Homo sapiens, UniProt P28223).
T3 construct: host or cells: HEK293
In words: FLIPR Ca2+ flux functional assay, agonist activity at 5-HT2A. It is filed as cell-based. As to conditions: stably transfected HEK293 cells. The protocol: as §1, §2

T3 sequence (P28223 whole entry): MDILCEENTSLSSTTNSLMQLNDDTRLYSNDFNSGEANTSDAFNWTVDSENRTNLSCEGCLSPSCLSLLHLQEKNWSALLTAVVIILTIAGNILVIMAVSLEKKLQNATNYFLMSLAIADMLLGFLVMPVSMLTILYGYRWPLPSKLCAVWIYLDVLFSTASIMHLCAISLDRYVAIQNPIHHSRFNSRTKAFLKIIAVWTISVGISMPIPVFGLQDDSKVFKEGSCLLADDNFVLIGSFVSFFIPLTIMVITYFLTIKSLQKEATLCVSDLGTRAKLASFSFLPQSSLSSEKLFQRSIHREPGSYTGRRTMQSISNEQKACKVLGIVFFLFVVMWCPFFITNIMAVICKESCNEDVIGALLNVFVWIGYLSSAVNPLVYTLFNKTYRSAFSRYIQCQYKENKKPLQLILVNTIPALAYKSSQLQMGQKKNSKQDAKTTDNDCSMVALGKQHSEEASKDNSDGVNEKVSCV
T2 sequence (P41595 whole entry): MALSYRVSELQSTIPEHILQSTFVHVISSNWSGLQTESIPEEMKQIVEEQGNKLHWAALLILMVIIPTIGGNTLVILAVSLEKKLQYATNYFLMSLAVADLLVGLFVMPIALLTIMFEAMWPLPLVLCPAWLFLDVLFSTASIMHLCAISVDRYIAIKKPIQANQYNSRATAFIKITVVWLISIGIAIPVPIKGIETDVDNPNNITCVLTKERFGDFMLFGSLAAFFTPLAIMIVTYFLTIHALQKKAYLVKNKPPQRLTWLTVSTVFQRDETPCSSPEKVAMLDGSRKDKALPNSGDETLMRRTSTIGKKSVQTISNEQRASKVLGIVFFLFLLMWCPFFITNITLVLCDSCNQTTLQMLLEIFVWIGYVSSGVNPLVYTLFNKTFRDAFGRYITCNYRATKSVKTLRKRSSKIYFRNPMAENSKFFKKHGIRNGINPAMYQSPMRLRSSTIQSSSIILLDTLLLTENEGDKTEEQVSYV

As for `COc1cnc2[nH]cc(CCN(C)C)c2c1` [Compound P-3, 2-(5-methoxy-1H-pyrrolo[2,3-b]pyridin-3-yl)-N,N-dimethylethan-1-amine], in the series on C57BL/6J mice, the “Head-twitch response (HTR)” value is “not promoting increased head-twitch response” and the “Tolerability (temperature, locomotor activity, HTR; FIGS. 2-5)” value is reported as “well-tolerated”. Further, the “Immobility time in tail suspension test (FIG. 6)” value in the series on Male ICR mice was “decrease the immobility time of mice”.
With `COc1ccnc2[nH]cc(CCN(C)C)c12` [Compound P-4, 2-(4-methoxy-1H-pyrrolo[2,3-b]pyridin-3-yl)-N,N-dimethylethan-1-amine], in the series with C57BL/6J mice, the “Head-twitch response (HTR)” value was “not promoting increased head-twitch response” and the “Tolerability (temperature, locomotor activity, HTR; FIGS. 2-5)” value was “well-tolerated”.
For `N#Cc1cnc2[nH]cc(CCN3CCCC3)c2c1` [Compound S69, 3-(2-(pyrrolidin-1-yl)ethyl)-1H-pyrrolo[2,3-b]pyridine-5-carbonitrile], on 5-HT2C receptor, the EC50 is above 10000 nM and the Emax is 0%. In addition, the “5-HT2B % Activation @ 10 μM” value on 5-HT2B receptor is recorded as 0%. Besides, on 5-HT2A receptor, the EC50 is 1470 nM and the Emax stood at 86%.
With `N#Cc1cnc2[nH]cc(CCN3CCC3)c2c1` [Compound S70, 3-(2-(azetidin-1-yl)ethyl)-1H-pyrrolo[2,3-b]pyridine-5-carbonitrile], on 5-HT2C receptor, the EC50 was above 10000 nM and the Emax came out at 16%. At 5-HT2B receptor, the “5-HT2B % Activation @ 10 μM” value is recorded as 0%. On 5-HT2A receptor, this compound displayed an EC50 of 681 nM and a maximum response (Emax) of 78%.
With `CC1CCN1CCc1c[nH]c2ncc(C#N)cc12` (stereo not shown) [Compound S71, 3-(2-(2-methylazetidin-1-yl)ethyl)-1H-pyrrolo[2,3-b]pyridine-5-carbonitrile], the EC50 on 5-HT2C receptor is above 10000 nM; at 5-HT2A receptor, 1140 nM. Also, the Emax on 5-HT2C receptor was found to be 9%; on 5-HT2A receptor, 81%. Besides, the “5-HT2B % Activation @ 10 μM” value at 5-HT2B receptor is listed as 0%.
Turning to `N#Cc1cnc2[nH]cc(CCNCc3ccccc3F)c2c1` [Compound S72, 3-(2-((2-fluorobenzyl)amino)ethyl)-1H-pyrrolo[2,3-b]pyridine-5-carbonitrile], the EC50 was found to be 5070 nM at 5-HT2C receptor and 179 nM at 5-HT2A receptor. Besides, the Emax was 47% on 5-HT2C receptor and 70% at 5-HT2A receptor. Further, the “5-HT2B % Activation @ 10 μM” value on 5-HT2B receptor is listed as 0%.
On 5-HT2C receptor, `N#Cc1cnc2[nH]cc(CCNCc3cccc(F)c3)c2c1` [Compound S73, 3-(2-((3-fluorobenzyl)amino)ethyl)-1H-pyrrolo[2,3-b]pyridine-5-carbonitrile] had an EC50 of 7430 nM and a maximal response (Emax) of 43%. In addition, at 5-HT2B receptor, the “5-HT2B % Activation @ 10 μM” value is reported as 2%. Besides, at 5-HT2A receptor, the EC50 turned out to be 134 nM and the Emax came to 66%.
The matching figures for `COc1ccccc1CNCCc1c[nH]c2ncc(C#N)cc12` [Compound S74, 3-(2-((2-methoxybenzyl)amino)ethyl)-1H-pyrrolo[2,3-b]pyridine-5-carbonitrile]: 1880 nM, 88%, 15%, 7.7 nM and 93%.
On 5-HT2C receptor, `COc1cccc(CNCCc2c[nH]c3ncc(C#N)cc23)c1` [Compound S75, 3-(2-((3-methoxybenzyl)amino)ethyl)-1H-pyrrolo[2,3-b]pyridine-5-carbonitrile] showed an EC50 of 3620 nM and an Emax of 46%. The “5-HT2B % Activation @ 10 μM” value at 5-HT2B receptor is reported as 1%. Also, on 5-HT2A receptor, the EC50 stood at 44.4 nM and the Emax turned out to be 79%.

As usually defined, the EC50 is the midpoint of the concentration-response curve. A lower EC50 goes with a more potent agent. The term Emax denotes the size of the effect at its maximum, as opposed to the concentration needed.

The values are drawn from patent US20250361233A1, “Compounds For Activating Serotonin Receptor” (PSYLO PTY LTD, priority 2023, published 2025).
